Measured values: patent publication US8425945B2, “Methods and compositions for regulating biofilm development” (NewSouth Innovations Pty Limited, priority 2005, dated 2013)

Key:
[1] = system: S. marcescens biofilms; test: Dispersal of biofilms on slides, surface coverage; format: cell-based, Serratia marcescens; details: SNAP 100 nM, 24 hours
[2] = system: P. aeruginosa PAO1; test: Biofilm to planktonic transition on microscope slides in petri dishes with NO donors/scavenger; format: cell-based, Pseudomonas aeruginosa; details: for biofilm formation (percentage of surface coverage) / planktonic growth (OD600 nm of supernatant): NO donor 1 μM, 24 hours, lesser extent than SNP
[3] = system: Vibrio cholerae biofilms; test: Dispersal of biofilms on slides, surface coverage; format: cell-based; details: 1 μM GSNO, 24 hours
[4] = system: P. aeruginosa biofilms; test: Sensitivity of biofilms grown with SNP to antimicrobial agents; format: cell-based, Pseudomonas aeruginosa; details: tobramycin 100 μM, 30 minutes, with 500 nM SNP

Row | SMILES | biofilm formation (percentage of surface coverage) [2] | planktonic growth (OD600 nm of supernatant) [2] | further results
1 | CC(=O)N[C@H](C(=O)O)C(C)(C)SN=O (racemic) [SNAP, S-nitroso-N-acetylpenicillamine] | decreases in biofilm formation | increases in planktonic growth | dispersal of biofilms [1]: effective for dispersal
2 | N[C@@H](CCC(=O)N[C@@H](CSN=O)C(=O)NCC(=O)O)C(=O)O [GSNO, S-nitroso-L-glutathione] | decreases in biofilm formation | increases in planktonic growth | stability of biofilms [3]: significant effect on stability
3 | CC1(C)N([O])C(c2ccccc2)=[N+]([O-])C1(C)C [PTIO, 2-phenyl-4,4,5,5-tetramethyl-imidazoline-1-oxyl 3-oxide] |  |  | reduction of the SNP effect in both planktonic and biofilm phenotypes ([2]; PTIO 1 mM in addition to SNP 500 nM): ≥ 40%
4 | NC[C@H]1O[C@H](O[C@H]2[C@H](O)[C@@H](O[C@H]3O[C@H](CO)[C@@H](O)[C@H](N)[C@H]3O)[C@H](N)C[C@@H]2N)[C@H](N)C[C@@H]1O [tobramycin] |  |  | antimicrobial giving the highest effect in combination with SNP [4]: highest effect
